# Source: patent US9657260B2, “Method and system for continous monitoring of toxicity” (Yissum Research Development Company of The Hebrew …, priority 2014, dated 2017)
# Several values for one entry are separate records, joined by “and”; a condition that tells them apart may be missing. Identical values can stand only once. Entries after “also recorded” stand apart in the source; their conditions may differ.
# Key:
# [1] = system: HepG2/C3A spheroids; format: cell-based, human
# Protocol: Quantitative Real Time Polymerase Chain Reaction (qRT-PCR). RNA was isolated and purified utilizing Macherey-Nagel NucleoSpin RNA II kit according to manufacturer instructions. RNA concentration and purity was determined using NanoDrop ND-1000 spectrophotometer (Thermo Fisher Scientific, USA). cDNA was synthesized from 1 μg RNA sample using qScript cDNA SuperMix (Quanta BioSciences, USA) according to the manufacturer protocol. Gene expression analysis was carried out utilizing KAPA SYBR FAST Universal 2X qPCR Master Mix (Kapa Biosystems, Boston, USA) on BioRad CFX96 Real-Time System (New South Wales, Australia), according to the manufacturer protocol. Gene transcription was evaluated using the ΔΔCt method normalized to 60S ribosomal protein L32 (RPL32) or ubiquitin C (UBC).
# [2] = system: HepG2/C3A cells; assay: Electrochemical glucose and lactate sensing at the bioreactor outflow; format: cell-based, human; conditions: 50 μM; for lactate over glucose ratio reached after exposure: before exposure 1.3 (rotenone), 1.2 (Troglitazone)
# Protocol: Cells respond to mitochondrial dysfunction by adapting their metabolic response to circumvent oxidative phosphorylation. To track this response electrochemical sensors for glucose and lactate were attached to bioreactor outflow in a PMMA housing with 16 μl dead volume (FIG. 5 A-C). Samples were collected sequentially using a computer controlled microfluidic switchboard (FIG. 5D). Micromechanical valves (FIG. 5E) introduced a sequence of (1) washing buffer, (2) air bubble interface, and (3) a bioreactor sample every hour. Proof of principle was shown with 50 μM rotenone, a direct mitochondrial C1 inhibitor, causing an 80% loss in respiration (FIG. 5F). […] Importantly, the system is sensitive enough to detect minute signals and off target effects. […] Lactate over glucose ratio increases slightly from 1.2 to 1.8, showing a shift toward glycolysis (FIG. 5I).
# [3] = in vitro; conditions: human
# Protocol: (§1) Reactor Seeding. The following steps of cell seeding and reactor assembly were carried out in a sterile hood. Prior to seeding cells into the reactor, the PDMS-based well unit and all tubings were cleaned and sterilized with 70% EtOH, washed with ddH2O, dried and subsequently exposed to UV light for at least 30 min. The cells were detached from the tissue culture substrate with trypsin-EDTA (Biochrom, Berlin, Germany), counted, centrifuged at 280 rpm for 5 min at 4° C. and resuspended with 100 μl of collagen type I solution to a final density of 4×10^6 cells per device. During resuspension of the cells, 300 μg to 500 μg oxygen sensing beads (CPOx-50-RuP, Colibri Photonics, Potsdam, Germany) were added, resulting in at least ten to 20 beads per microwell after completion of the cell seeding protocol. The collagen type I solution was made of 560 μl ddH2O, 100 μl PBS (10×), 6.25 μl of 1 N NaOH and 333 μl of collagen type I (3.6 mg ml^−1, BD Biosciences, San Jose, Calif., USA). The PDMS microwells were primed for 5 min on ice with this solution in order to eliminate air bubbles from the wells. Subsequently, 100 μl of collagen type I suspension containing cells and oxygen-sensing beads was placed on top of the PDMS-based well unit, thus covering all nine microwells. The unit was kept in a sterile 50.8 mm petri dish placed on ice for 5 min in order to allow the cells to sediment into the wells. The low temperature prevented premature collagen polymerization and the induction of cellular stress response pathways. Afterwards, excess cell and microbead suspension was gently but thoroughly wiped off the PDMS-based well unit using a sterile glass coverslip (FIG. 2C) leading to a concentration of 100,000 cells/well. The inoculated well unit was then incubated for 5 min at 37° C. in a humidified cell incubator (see above) at 5% CO2 in order to polymerize the collagen and by this immobilize the cells and microbeads in the wells. Following polymerization, the well unit, loaded with the cells, was immersed in 5 ml of MEM medium (composition see above) for 20 min at 37° C. in a cell incubator (see above). Subsequently, the PDMS-based well unit was transferred into the bioreactor. After sealing, the bioreactor was placed into the climate control chamber (37° C., ACUO2, Evotec, Germany) of an inverted fluorescence microscope (IX81, Olympus, Japan) and perfused with MEM (composition see above) supplemented with 10 mM HEPES with a flow rate of 10 μl min^−1 using a syringe pump (Harvard Apparatus, USA). The automated and motorized microscope stage was equipped with a holder for three microreactors, allowing for performing three experiments simultaneously.
# (§2) Chemical compound injection. […] Succinate as the substrate for complex II was used as an electron donor for the putatively toxicologically affected complex I in the mitochondrial electron transfer system (ETS), whereas TMPD was used to donate electrons to cytochrome c in order to test for a putative toxicological effect on complex III in the ETS. Ascorbate was used to maintain TMPD in a reduced state. The cytotoxic effects were evaluated by real-time monitoring of the change in oxygen consumption and for subsequent confirmation of the toxicological endpoints also by specific conventional staining assays (see below).
# (§3) Oxygen measurement. Real-time oxygen measurements were performed optically by means of phosphorescence quenching. Biocompatible polystyrene microbeads with a diameter of 50 μm equipped with a ruthenium-phenanthroline-based phosphorescence dye (CPOx-50-RuP, Colibri Photonics, Potsdam, Germany) were used as microprobes and were coimmobilized with the cells (FIG. 1D) in the collagen matrix during reactor seeding (described above). The electronic measurement system (OPAL, Colibri Photonics, Germany) comprises a control module, an LED as the excitation source and a detector unit (FIG. 1A).
# [4] = system: HepG2/C3A cells; assay: in vitro; conditions: for % of normal respiration: within 60 minutes (fast phase); for time to onset of mitochondrial (respiratory) damage: human
# Protocol: as §1, §2, §3
# [5] = system: HeLa cells; assay: Real-time oxygen uptake of HeLa cells in the bioreactor; format: cell-based, human; conditions: for effect of ascorbate and TMPD on the loss of oxygen uptake: 10 μM, preincubation with 2 mM ascorbate and 0.5 mM TMPD
# Description: Chemical compound injection.
# Oxygen measurement. […] Thus, the camera port was kept available for imaging.
# [6] = system: HepG2/C3A cells; assay: HCS LipidTOX staining for steatosis and phospholipidosis; format: cell-based, human; conditions: 24 hr exposure to amiodarone (200 pM as printed elsewhere in the source)
# Protocol: Steatosis and phospholipidosis were evaluated using the HCS LipidTOX™ system (Life Technologies, USA) according to manufacturer directions. Briefly, cells were incubated with green neutral lipid and red phospholipidosis dyes and counterstained with 1 μg/mL Hoechst 33342 for 30 min, and washed with PBS. LipidTOX green and red staining intensity were normalized to number of Hoechst-labeled nuclei.
# [7] = HeLa cells, 12.5 mM acetaminophen
compound,measurement,setting,value
C[S+](C)[O-] [DMSO],cell viability,[1],little affect on cell viability
same,increase in PXR expression,[1],8 fold
same,increase in MRP3 expression,"[1]; 1%, 28 days",10 fold
Cc1c(C)c2c(c(C)c1O)CCC(C)(COc1ccc(CC3SC(=O)NC3=O)cc1)O2 (centres unmarked) [Troglitazone],lactate over glucose ratio reached after exposure,[2],1.8
same,CC50,[3],300 µM
CC(=O)Nc1ccc(O)cc1 [acetaminophen],% of normal respiration,[4]; 8 mM acetaminophen,70%
same,% of normal respiration,[4]; 12.5 mM acetaminophen,55%
same,% of normal respiration,[4]; 16 mM acetaminophen,25%
same,mitochondrial respiration immediately after exposure,[5]; [7],identical rapid loss of mitochondrial respiration; also recorded: identical immediate loss of mitochondrial respiration
same,second dose-independent phase of toxicity,[5]; [7],failed to display the second dose-independent phase of toxicity; also recorded: absent in HeLa cells
same,time at which the rapid loss of respiration ends,[5]; [7],60 min
same,effect of ascorbate and TMPD on the toxic response,"[5]; HeLa, 12.5 mM acetaminophen, 2 mM ascorbate and 0.5 mM TMPD",eliminated the toxicity; also recorded: abrogated the toxic response
same,effect of succinate on the toxic response,"[5]; HeLa, 12.5 mM acetaminophen, preincubation with 20 mM succinate",no effect on the toxicity; also recorded: did not affect HeLa response
CCCCc1oc2ccccc2c1C(=O)c1cc(I)c(OCCN(CC)CC)c(I)c1 [amiodarone],increase in intracellular lipids (steatosis),[6],2.1 fold and 2 fold and > 2 fold
same,increase in phospholipidosis,[6],2.4 fold and 2.5 fold and > 2 fold
same,time to onset of mitochondrial (respiratory) damage,[4]; 200 µM,15 h
same,time to onset of mitochondrial (respiratory) damage,[4]; 500 µM,6 h
same,time to onset of mitochondrial (respiratory) damage,[4]; 1000 µM,2 h
C=C(C)[C@H]1Cc2c(ccc3c2O[C@@H]2COc4cc(OC)c(OC)cc4[C@@H]2C3=O)O1 [rotenone],glucose uptake after 6 hours,"[2]; after 6 hours, shift to glutaminolysis",loss of glucose uptake
same,lactate over glucose ratio reached after exposure,[2],2.5
same,loss in respiration,[4]; 50 μM,80%
Antimycin A,effect of ascorbate and TMPD on the loss of oxygen uptake,[5]; HeLa,abrogated
same,effect of ascorbate and TMPD on the loss of oxygen uptake,"[5]; HeLa, listed as antimycin A",abrogated the toxic response
